System: gastric mucosa (lesion by necrotizing agent 0.4N HCl+50% ethanol)
Experiment: Test on the Action of Gastric Mucosal Protection
Type: in vivo, Male Donryu rats
Details: 10 mg/kg, p.o., 30 minutes before necrotizing agent (0.4N HCl+50% ethanol, 5 ml/kg); stomach isolated after one hour; rats fasted 24 hours
Method: Test on the Action of Gastric Mucosal Protection
Male Donryu rats (150 to 250 g) which had been caused to fast for 24 hours were used. In the test, a necrotizing agent (0.4N HCl+50% ethanol) was orally administered in a dose of 5 ml/kg 30 minutes after administering each of the test compounds (10 mg/kg, p.o.). One hour after administration of the necrotizing agent, the stomach was isolated and fixed by formalin. The area of a lesion was measured, and by comparison with a control group, the percent inhibition was determined.

In order of rising “Inhibition (%) of lesion area” value:
1. O=C(C[S+]([O-])Cc1ccco1)NC/C=C\COc1cc(CN2CCCCC2)ccn1 (stereo not drawn) [Example 2, N-{4-[4-(piperidinomethyl)pyridyl-2-oxy]-cis-2-butenyl}-2-(furfurylsulfinyl)acetamide]  32%
2. O=C(C[S+]([O-])Cc1ccco1)NCCCCOc1cc(CN2CCCCC2)ccn1 (centres unmarked) [Example 21, N-{4-[4-(piperidinomethyl)-pyridyl-2-oxy]-butyl}-2-(furfurylsulfinyl)acetamide]  32%
3. O=C(C[S+]([O-])Cc1ccco1)NC/C=C\COc1cc(CN2CCOCC2)ccn1 (stereo not drawn) [Example 12, N-{4-[4-(morpholinomethyl)pyridyl-2-oxy]-cis-2-butenyl}-2-(furfurylsulfinyl)acetamide]  38%
4. O=C(CS(=O)(=O)Cc1ccoc1)NC/C=C\COc1cc(CN2CCCCC2)ccn1 [Example 3, N-{4-[4-(piperidinomethyl)pyridyl-2-oxy]-cis-2-butenyl}-2-(3-furylmethylsulfonyl)acetamide]  62%
5. O=C(CSCc1ccco1)NC/C=C\COc1cc(CN2CCCCC2)ccn1 [Example 1, N-{4-[4-(piperidinomethyl)pyridyl-2oxy]-cis-2-butenyl)-2-(furfurylthio)acetamide]  66%

Target: T1, histamine H2 receptor (Cavia porcellus, UniProt P47747)
T1 construct: the right atrium was dissected from the hearts; from tissue; host or cells: isolated right atrium of male Hartley-strain guinea pigs
Experiment: Test on histamine H2 receptor antagonizing activity (isolated right atrium)
Set-up: species or system Hartley-strain guinea pigs
Details: guinea pig right atrium, heart rate; histamine dose-response; test compound 1×10^-6, 1×10^-7 M, 10 minutes; Van Rossum method; read-out: pA2 (converted)
Method: Test on histamine H2 receptor antagonizing activity
Hartley-strain guinea pigs (male 300 to 350 g) were stunned with a blow to the head. The heart was removed, and the right atrium was dissected from the hearts in the Krebs' solution bubbled with a […] was suspended in an Organ bath filled with the Krebs' solution kept at 32° C. The gaseous mixture was passed through the Organ bath, and a diastolic tension was adjusted to 1 g. The contraction of the atrium was recorded by a force displacement transducer, and the heart rate was measured by interlocking a heart rate meter to the transducer.
Histamine (used in the form of dihydrochloride; the same hereinafter) was added to the Organ bath cumulatively in a concentration of 1×10^-8 M to 3×10^-5 M. Thus, the dose-response curve of histamine was obtained. The Organ bath was washed several times, and each of the test compounds (1×10^-6, 1×10^-7 M) was added to the Organ bath, and a dose-response curve of histamine in the presence of the test compound was obtained 10 minutes later.
The pA2 value of each of the test compound was determined from the first histamine dose-response curve and the histamine dose-response curve obtained in the presence of the test compounds by the method of J. M. Van Rossum (Arch. Int. Pharmacodyn. Ther., 143-299, 1963).

T1 sequence (P47747 whole entry): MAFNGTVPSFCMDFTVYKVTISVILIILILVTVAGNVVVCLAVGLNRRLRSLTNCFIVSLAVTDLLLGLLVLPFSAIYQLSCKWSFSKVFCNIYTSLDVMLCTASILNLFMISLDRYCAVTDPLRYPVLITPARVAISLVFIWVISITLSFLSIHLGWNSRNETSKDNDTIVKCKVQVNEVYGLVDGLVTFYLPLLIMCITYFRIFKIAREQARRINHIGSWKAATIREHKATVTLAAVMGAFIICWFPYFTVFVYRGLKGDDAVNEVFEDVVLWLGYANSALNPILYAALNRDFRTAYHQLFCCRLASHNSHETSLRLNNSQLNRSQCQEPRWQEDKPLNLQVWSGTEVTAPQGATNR

In order of falling Kb:
1. O=C(C[S+]([O-])Cc1ccco1)NC/C=C\COc1cc(CN2CCOCC2)ccn1 (stereo not drawn) [Example 12, N-{4-[4-(morpholinomethyl)pyridyl-2-oxy]-cis-2-butenyl}-2-(furfurylsulfinyl)acetamide]  251 nM
2. O=C(C[S+]([O-])Cc1ccco1)NC/C=C\COc1cc(CN2CCCC2)ccn1 (stereo not drawn) [Example 10, N-{4-[4-(pyrrolidinomethyl)pyridyl-2-oxy]-cis-2-butenyl}-2-(furfurylsulfinyl)acetamide]  126 nM
3. O=C(CS(=O)(=O)Cc1ccoc1)NC/C=C\COc1cc(CN2CCCC2)ccn1 [Example 11, N-{4-[4-(pyrrolidinomethyl)pyridyl-2-oxy]-cis-2-butenyl}-2-(3-furylmethylsulfonyl)acetamide]  100 nM
